Laboratory results from PubChem BioAssay AID2060348 (Molecular Pharmacology Branch, DTP, NCI, 2025).
“And” between values parts separate entries of the source, which are not always exact repeats. Equal entries are not always repeated.

Test system: 885724-159-R-J1-PDC spheroids viability
Assay: Anticancer human tumor 885724-159-R-J1-PDC patient-derived pancreatic adenocarcinoma cell line growth inhibition [TAK]
Conditions: spheroids with HUVEC and MSC; for viability, T/C: stronger effect = lower value
From the text: Combinatorial screen of targeted agents with TAK-243 and ipatasertib in multi-cell type tumor spheroids
A high-throughput screen of multi-cell type tumor spheroids was designed to identify active combinations of targeted small molecules and TAK-243 or ipatasertib. Complex spheroids include a stromal component modeled by human endothelial cells (HUVEC) and fibroblasts modeled by human mesenchymal stem cells (MSCs). The concentration ranges selected for each drug and investigational agent were based upon clinically achievable concentrations if the clinical Cmax of the agent was known.
Compounds. The drugs and investigational agents: TAK-243 (785004), ipatasertib (767898), everolimus (733504), selumetinib (741078), bortezomib (756655), trametinib (758246), ixazomib (758254), vemurafenib (761431), dabrafenib (764134), sapanisertib (764658), alpelisib (765974), and copanlisib (816437), were obtained from the National Cancer Institute (NCI) Developmental Therapeutics Program Chemical Repository. The FDA-approved anticancer drug set is available from the NCI Developmental Therapeutics Program. […] The stock solutions were prepared in dimethyl sulfoxide (DMSO, Sigma-Aldrich, St. Louis, MO, cat. D2650) at 800-fold the tested concentration and stored at -70 degrees C prior to their use. All drugs and investigational agents were tested over a range starting from a high concentration at or near the clinical Cmax and decreasing in half-log increments. If the clinical Cmax for an agent had not been determined, the highest concentration tested was 10 microM.
NCI60 Cell Culture. NCI60 cell lines were obtained from the NCI Developmental Therapeutics Program Tumor Repository. For each lot of cells, the Repository performed Applied Biosystems AmpFLSTR Identifiler testing with PCR amplification to confirm consistency with the published Identifier STR profile for each cell line. Cells were kept in continuous culture for no more than 20 passages. The optimal seeding densities for each of the cell lines at each time point assessed were determined prior to performing the concentration response studies. Briefly, the NCI60 human tumor lines were grown as monolayers in RPMI 1640 medium supplemented with 10% FBS and 2 mmol/L L-glutamine.
An additional 2 lines were from the NCI60 cell line panel including melanomas, MALME-3M and SK-MEL-2. Pooled donor human umbilical vein endothelial cells (HUVEC, Lonza, cat. CC-2519) and human mesenchymal stem cells (hMSC, Lonza, cat. PT-2501) were purchased from Lonza (Walkersville, MD).
PDMR cell lines were grown in complete medium (DC medium): Dulbecco's modified Eagle's medium (DMEM)/F12 supplemented with 5% fetal bovine serum (FBS), 2 mM L-glutamine, 100 U/mL penicillin and 100 µg/ml streptomycin, 0.4 µg/ml hydrocortisone, 10 ng/ml epidermal growth factor (EGF) recombinant human protein, 24 µg/mL adenine, and 0.1 mg/mL primocin. During culture from frozen stock vials, PDMR cells were cultured in the same medium containing 10 µM Y-27632 (see Table 3). The PDCs were cultured in complete DMEM/F12 media without 10 microM Y-27632 dihydrochloride for at least two passages prior to the screen. The pooled donor HUVEC and hMSC were cultured in endothelial cell growth medium 2 (PromoCell, Heidelberg, Germany, cat. C-22011) and mesenchymal stem cell growth medium 2 (PromoCell, cat. C-28009), respectively. For all experiments, HUVEC and hMSC were used at passages </=5.
For the pre-screen, cell seeding densities were determined from a titration spanning the range from 5,000 to 313 cells per well. The mct-spheroids including 60% malignant cells, 25% HUVEC and 15% MSC dispensed as a mixture into U-bottom Ultra-Low Attachment 384-well plates (Corning, NY)
High-throughput Drug Combination Screening.
Prior to their inoculation into 384-well plates, malignant cells, HUVEC, and hMSC were removed from T flasks using TrypLE express (Thermo Fisher Scientific, cat. 12605036) and harvested by centrifugation for 5 min at 233 x g. […]

[1] = curve of first compound, second compound 0.3 µM
[2] = curve of first compound, second compound 0.949 µM
[3] = curve of first compound, second compound 3 µM
[4] = curve of first compound, second compound 9.49 µM
[5] = curve of first compound, second compound 30 µM
[6] = second compound 0.3 µM, first compound 0.000316 µM
[7] = second compound 0.3 µM, first compound 0.001 µM
[8] = second compound 0.3 µM, first compound 0.00316 µM
[9] = second compound 0.3 µM, first compound 0.01 µM
[10] = second compound 0.3 µM, first compound 0.0316 µM
[11] = second compound 0.3 µM, first compound 0.1 µM
[12] = second compound 0.949 µM, first compound 0.000316 µM
[13] = second compound 0.949 µM, first compound 0.001 µM
[14] = second compound 0.949 µM, first compound 0.00316 µM
[15] = second compound 0.949 µM, first compound 0.01 µM
[16] = second compound 0.949 µM, first compound 0.0316 µM
[17] = second compound 0.949 µM, first compound 0.1 µM
[18] = second compound 3 µM, first compound 0.000316 µM
[19] = second compound 3 µM, first compound 0.001 µM
[20] = second compound 3 µM, first compound 0.00316 µM
[21] = second compound 3 µM, first compound 0.01 µM
[22] = second compound 3 µM, first compound 0.0316 µM
[23] = second compound 3 µM, first compound 0.1 µM
[24] = second compound 9.49 µM, first compound 0.000316 µM
[25] = second compound 9.49 µM, first compound 0.001 µM
[26] = second compound 9.49 µM, first compound 0.00316 µM
[27] = second compound 9.49 µM, first compound 0.01 µM
[28] = second compound 9.49 µM, first compound 0.0316 µM
[29] = second compound 9.49 µM, first compound 0.1 µM
[30] = second compound 30 µM, first compound 0.000316 µM
[31] = second compound 30 µM, first compound 0.001 µM
[32] = second compound 30 µM, first compound 0.00316 µM
[33] = second compound 30 µM, first compound 0.01 µM
[34] = second compound 30 µM, first compound 0.0316 µM
[35] = second compound 30 µM, first compound 0.1 µM
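Further: spheroids exposed to drugs for seven days.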
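Wherever viability, T/C is given: 100% = DMSO vehicle control viability.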

SMILES: CC(C)CC(NC(=O)CNC(=O)c1cc(Cl)ccc1Cl)B1OC(=O)CC(CC(=O)O)(C(=O)O)O1 (stereo unspecified) + CC(C)NCC(C(=O)N1CCN(c2ncnc3c2C(C)CC3O)CC1)c1ccc(Cl)cc1
- IC50 [1]: 13.8 nM
- IC50 [2]: 12.1 nM
- IC50 [3]: 11.6 nM
- IC50 [4]: < 0.316 nM
- IC50 [5]: < 0.316 nM
- viability, T/C [6]: 66.6%
- viability, T/C [7]: 66.3%
- viability, T/C [8]: 63.6%
- viability, T/C [9]: 63.3%
- viability, T/C [10]: 15.4%
- viability, T/C [11]: 1.16%
- viability, T/C [12]: 57.5%
- viability, T/C [13]: 61%
- viability, T/C [14]: 62.2%
- viability, T/C [15]: 58.3%
- viability, T/C [16]: 8.98%
- viability, T/C [17]: 1.18%
- viability, T/C [18]: 55.5%
- viability, T/C [19]: 58.3%
- viability, T/C [20]: 53.1%
- viability, T/C [21]: 55.9%
- viability, T/C [22]: 11.1%
- viability, T/C [23]: 0.99%
- viability, T/C [24]: 48.5%
- viability, T/C [25]: 52.1%
- viability, T/C [26]: 48.5%
- viability, T/C [27]: 46.1%
- viability, T/C [28]: 9.27%
- viability, T/C [29]: 1.07%
- viability, T/C [30]: 33.9%
- viability, T/C [31]: 33.5%
- viability, T/C [32]: 34.7%
- viability, T/C [33]: 32.9%
- viability, T/C [34]: 7.76%
- viability, T/C [35]: 0.71%

SMILES: COc1c(OCCCN2CCOCC2)ccc2c3n(c(=NC(=O)c4cnc(N)nc4)nc12)CCN3
- viability, T/C (compound 0.00316 µM): 92.1% and 84.8%
- viability, T/C (compound 0.01 µM): 69.9% and 64.1%
- viability, T/C (compound 0.0316 µM): 47.1% and 47.6%
- viability, T/C (compound 0.1 µM): 27.9% and 22.6%
- viability, T/C (compound 0.316 µM): 14% and 13.8%
- viability, T/C (compound 1 µM): 12.1% and 12%
- IC50 (curve of compound): 26.7 nM and 23.3 nM

SMILES: CC(C)n1nc(-c2ccc3oc(N)nc3c2)c2c(N)ncnc21
- viability, T/C (compound 0.000316 µM): 104% and 108%
- viability, T/C (compound 0.001 µM): 103% and 95.1%
- viability, T/C (compound 0.00316 µM): 93.3% and 83.8%
- viability, T/C (compound 0.01 µM): 67.5% and 70.2%
- viability, T/C (compound 0.0316 µM): 54.2% and 51.1%
- viability, T/C (compound 0.1 µM): 46.1% and 46%
- IC50 (curve of compound): 52.6 nM and 52.9 nM

SMILES: CC(C)(C)c1nc(-c2cccc(NS(=O)(=O)c3c(F)cccc3F)c2F)c(-c2ccnc(N)n2)s1
- viability, T/C (compound 0.0316 µM): 179% and 172%
- viability, T/C (compound 0.1 µM): 262% and 233%
- viability, T/C (compound 0.316 µM): 321% and 254%
- viability, T/C (compound 1 µM): 332% and 269%
- viability, T/C (compound 3.16 µM): 308% and 241%
- viability, T/C (compound 10 µM): 200% and 176%
- IC50 (curve of compound): > 10000 nM

SMILES: CC(C)n1nc(-c2ccc3oc(N)nc3c2)c2c(N)ncnc21 + CC(C)NCC(C(=O)N1CCN(c2ncnc3c2C(C)CC3O)CC1)c1ccc(Cl)cc1
- IC50 [1]: 18.5 nM
- IC50 [2]: 6.88 nM
- IC50 [3]: 3.15 nM
- IC50 [4]: < 0.316 nM
- IC50 [5]: < 0.316 nM
- viability, T/C [6]: 66.2%
- viability, T/C [7]: 64.1%
- viability, T/C [8]: 56.8%
- viability, T/C [9]: 53.9%
- viability, T/C [10]: 48.6%
- viability, T/C [11]: 37.1%
- viability, T/C [12]: 57.2%
- viability, T/C [13]: 63.5%
- viability, T/C [14]: 54%
- viability, T/C [15]: 47.5%
- viability, T/C [16]: 38.4%
- viability, T/C [17]: 33.6%
- viability, T/C [18]: 58.1%
- viability, T/C [19]: 61.8%
- viability, T/C [20]: 47.7%
- viability, T/C [21]: 38.8%
- viability, T/C [22]: 31.5%
- viability, T/C [23]: 28.6%
- viability, T/C [24]: 47.4%
- viability, T/C [25]: 45.6%
- viability, T/C [26]: 38.3%
- viability, T/C [27]: 30.9%
- viability, T/C [28]: 25.5%
- viability, T/C [29]: 23%
- viability, T/C [30]: 32%
- viability, T/C [31]: 29.5%
- viability, T/C [32]: 30.2%
- viability, T/C [33]: 20.5%
- viability, T/C [34]: 19%
- viability, T/C [35]: 16.4%
